In the supplement of paper PMC11923942:

Experiments:
[1] = GC retention time (DB-5MS, GC-APCI); higher = later elution
Protocol: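 Standards of hydrophobic organic contaminants were analysed by GC-APCI (positive mode, dry or wet source conditions) coupled to cyclic ion mobility-QTOF MS. CCS was measured for the base ion (sometimes a fragment ion) in N2 drift gas (one-pass mode, calibrated with a Waters 22-compound mix). 5 mL/min).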

[2] = collision cross section (N2, base ion); higher = larger ion cross section
Protocol: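 Standards of hydrophobic organic contaminants were analysed by GC-APCI (positive mode, dry or wet source conditions) coupled to cyclic ion mobility-QTOF MS. CCS was measured for the base ion (sometimes a fragment ion) in N2 drift gas (one-pass mode, calibrated with a Waters 22-compound mix).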

ClC1=C(Cl)[C@]2(Cl)[C@@H]3[C@@H]4C[C@@H]([C@H]5O[C@@H]45)[C@@H]3[C@@]1(Cl)C2(Cl)Cl [Dieldrin] (APCI source condition: Dry, base ion: M+.)
GC retention time [1]: 19.8 min | collision cross section [2]: 151.16 Å²

ClC1=C(Cl)C2(Cl)C3C4CC(C5OC45)C3C1(Cl)C2(Cl)Cl (stereo not given) [Endrin] (APCI source condition: Wet, base ion: [M+H]+)
GC retention time [1]: 19.4 min | collision cross section [2]: 157.95 Å²

c1ccc2c(c1)-c1cccc3cccc-2c13 [Fluoranthene] (APCI source condition: Dry, base ion: M+.)
GC retention time [1]: 18.4 min | collision cross section [2]: 138.02 Å²

ClC1=C(Cl)C2(Cl)[C@H]3[C@@H]4O[C@@H]4[C@H](Cl)[C@H]3C1(Cl)C2(Cl)Cl (stereo partly drawn) [Heptachlor-exo-epoxide] (APCI source condition: Dry, base ion: [M-H]+)
GC retention time [1]: 18.2 min | collision cross section [2]: 151.86 Å²

ClC1=C(Cl)C2(Cl)C3C(Cl)C=CC3C1(Cl)C2(Cl)Cl (stereo not given) [Heptachlor] (APCI source condition: Dry, base ion: [M-H]+)
GC retention time [1]: 16.7 min | collision cross section [2]: 157.41 Å²

Brc1c(Br)c(Br)c(Br)c(Br)c1Br [Hexabromobenzene] (APCI source condition: Dry, base ion: M+.)
GC retention time [1]: 21.8 min | collision cross section [2]: 135.29 Å²

Clc1c(Cl)c(Cl)c(Cl)c(Cl)c1Cl [Hexachlorobenzene] (APCI source condition: Dry, base ion: M+.)
GC retention time [1]: 14.6 min | collision cross section [2]: 135.29 Å²

ClC1CCCC(Br)(Br)C(Cl)(C2=CCCC2)C(Cl)(Cl)C1(Cl)Cl (stereo not given) [Hexachlorocyclopentenyl-dibromocyclooctane] (APCI source condition: Dry, base ion: [M-CH4Cl2Br]+)
GC retention time [1]: 24.4 min | collision cross section [2]: 152.06 Å²

c1ccc2c(c1)-c1ccc3ccc4cccc5cc-2c1c3c45 [Indeno(1,2,3-cd)pyrene] (APCI source condition: Dry, base ion: M+.)
GC retention time [1]: 27.7 min | collision cross section [2]: 148.24 Å²

ClC1=C(Cl)[C@]2(Cl)[C@H]3[C@H]([C@H]4C=C[C@@H]3C4)[C@@]1(Cl)C2(Cl)Cl [Isodrin] (APCI source condition: Dry, base ion: M+.)
GC retention time [1]: 18 min | collision cross section [2]: 150.98 Å²

Brc1ccc(Oc2ccc(Br)cc2Br)cc1 [PBDE 28] (APCI source condition: Dry, base ion: M+.)
GC retention time [1]: 20.1 min | collision cross section [2]: 154.31 Å²

Brc1cccc(Oc2ccc(Br)c(Br)c2)c1 [PBDE 35] (APCI source condition: Dry, base ion: M+.)
GC retention time [1]: 20.3 min | collision cross section [2]: 154.86 Å²

Brc1ccc(Oc2ccc(Br)cc2Br)c(Br)c1 [PBDE 47] (APCI source condition: Dry, base ion: M+.)
GC retention time [1]: 22.2 min | collision cross section [2]: 162.71 Å²

Brc1ccc(Oc2cc(Br)ccc2Br)c(Br)c1 [PBDE 49] (APCI source condition: Dry, base ion: M+.)
GC retention time [1]: 21.8 min | collision cross section [2]: 163.07 Å²

Brc1ccc(Oc2ccc(Br)c(Br)c2)c(Br)c1 [PBDE 66] (APCI source condition: Dry, base ion: M+.)
GC retention time [1]: 22.5 min | collision cross section [2]: 163.83 Å²

Brc1ccc(Oc2ccc(Br)c(Br)c2)cc1Br [PBDE 77] (APCI source condition: Dry, base ion: M+.)
GC retention time [1]: 23 min | collision cross section [2]: 164.62 Å²

Brc1ccc(Oc2ccc(Br)c(Br)c2Br)c(Br)c1 [PBDE 85] (APCI source condition: Dry, base ion: M+.)
GC retention time [1]: 25 min | collision cross section [2]: 170.22 Å²

Brc1ccc(Oc2cc(Br)c(Br)cc2Br)c(Br)c1 [PBDE 99] (APCI source condition: Dry, base ion: M+.)
GC retention time [1]: 24.2 min | collision cross section [2]: 169.31 Å²

Brc1ccc(Oc2c(Br)cc(Br)cc2Br)c(Br)c1 [PBDE 100] (APCI source condition: Dry, base ion: M+.)
GC retention time [1]: 23.7 min | collision cross section [2]: 169.85 Å²

Brc1cc(Br)c(Oc2cc(Br)c(Br)cc2Br)cc1Br [PBDE 153] (APCI source condition: Dry, base ion: M+.)
GC retention time [1]: 26 min | collision cross section [2]: 180.67 Å²

Brc1cc(Br)c(Oc2cc(Br)c(Br)cc2Br)c(Br)c1 [PBDE 154] (APCI source condition: Dry, base ion: M+.)
GC retention time [1]: 25.4 min | collision cross section [2]: 178.18 Å²

Brc1cccc(Oc2c(Br)c(Br)c(Br)c(Br)c2Br)c1Br [PBDE 173] (APCI source condition: Dry, base ion: M+.)
GC retention time [1]: 30.2 min | collision cross section [2]: 185.08 Å²

Brc1cc(Br)c(Oc2cc(Br)c(Br)c(Br)c2Br)c(Br)c1 [PBDE 182] (APCI source condition: Dry, base ion: M+.)
GC retention time [1]: 28.4 min | collision cross section [2]: 185.51 Å²

Brc1cc(Br)c(Oc2c(Br)cc(Br)c(Br)c2Br)cc1Br [PBDE 183] (APCI source condition: Dry, base ion: M+.)
GC retention time [1]: 28.2 min | collision cross section [2]: 184.97 Å²

Brc1cc(Br)c(Oc2c(Br)cc(Br)c(Br)c2Br)c(Br)c1 [PBDE 184] (APCI source condition: Dry, base ion: M+.)
GC retention time [1]: 27.8 min | collision cross section [2]: 181.4 Å²

Brc1ccc(Br)c(Oc2c(Br)c(Br)c(Br)c(Br)c2Br)c1 [PBDE 185] (APCI source condition: Dry, base ion: M+.)
GC retention time [1]: 28.6 min | collision cross section [2]: 182.95 Å²

Brc1cc(Oc2c(Br)cc(Br)c(Br)c2Br)cc(Br)c1Br [PBDE 191] (APCI source condition: Dry, base ion: M+.)
GC retention time [1]: 29 min | collision cross section [2]: 187.91 Å²

Clc1ccc(Cl)c(-c2c(Cl)ccc(Cl)c2Cl)c1Cl [PCB136] (APCI source condition: Dry, base ion: M+.)
GC retention time [1]: 19.4 min | collision cross section [2]: 155.08 Å²

Clc1ccc(-c2ccccc2)cc1 [PCB 3] (APCI source condition: Dry, base ion: M+.)
GC retention time [1]: 13.2 min | collision cross section [2]: 137.62 Å²

Clc1ccccc1-c1ccccc1Cl [PCB 4] (APCI source condition: Dry, base ion: M+.)
GC retention time [1]: 13.6 min | collision cross section [2]: 137.64 Å²

Clc1ccc(-c2ccccc2Cl)cc1 [PCB 7] (APCI source condition: Dry, base ion: M+.)
GC retention time [1]: 14.6 min | collision cross section [2]: 137.98 Å²

Clc1ccc(Cl)c(-c2ccccc2Cl)c1 [PCB 18] (APCI source condition: Dry, base ion: M+.)
GC retention time [1]: 15.4 min | collision cross section [2]: 140.01 Å²

Clc1cccc(-c2cccc(Cl)c2Cl)c1 [PCB 20] (APCI source condition: Dry, base ion: M+.)
GC retention time [1]: 16.6 min | collision cross section [2]: 140.68 Å²

Clc1ccc(-c2ccc(Cl)cc2Cl)cc1 [PCB 28] (APCI source condition: Dry, base ion: M+.)
GC retention time [1]: 16.4 min | collision cross section [2]: 142.54 Å²

Clc1cccc(-c2cccc(Cl)c2Cl)c1Cl [PCB 40] (APCI source condition: Dry, base ion: M+.)
GC retention time [1]: 17.9 min | collision cross section [2]: 144.96 Å²

Clc1ccc(Cl)c(-c2cc(Cl)ccc2Cl)c1 [PCB 52] (APCI source condition: Dry, base ion: M+.)
GC retention time [1]: 17.1 min | collision cross section [2]: 149.21 Å²

Clc1ccc(Cl)c(-c2c(Cl)cccc2Cl)c1 [PCB 53] (APCI source condition: Dry, base ion: M+.)
GC retention time [1]: 16.6 min | collision cross section [2]: 144.4 Å²

Clc1cc(-c2ccccc2)c(Cl)c(Cl)c1Cl [PCB 61] (APCI source condition: Dry, base ion: M+.)
GC retention time [1]: 18.3 min | collision cross section [2]: 148.05 Å²

Clc1ccc(Cl)c(-c2cc(Cl)c(Cl)cc2Cl)c1 [PCB 101] (APCI source condition: Dry, base ion: M+.)
GC retention time [1]: 18.8 min | collision cross section [2]: 155.45 Å²

Clc1ccc(-c2c(Cl)ccc(Cl)c2Cl)cc1Cl [PCB 110] (APCI source condition: Dry, base ion: M+.)
GC retention time [1]: 19.4 min | collision cross section [2]: 152.9 Å²

Clc1ccc(-c2cc(Cl)c(Cl)cc2Cl)cc1Cl [PCB 118] (APCI source condition: Dry, base ion: M+.)
GC retention time [1]: 19.9 min | collision cross section [2]: 156.06 Å²

Clc1ccc(-c2ccc(Cl)c(Cl)c2Cl)c(Cl)c1Cl [PCB 128] (APCI source condition: Dry, base ion: M+.)
GC retention time [1]: 21.3 min | collision cross section [2]: 158.12 Å²

Clc1cc(Cl)c(-c2ccc(Cl)c(Cl)c2Cl)cc1Cl [PCB 138] (APCI source condition: Dry, base ion: M+.)
GC retention time [1]: 20.8 min | collision cross section [2]: 159.68 Å²

Clc1cc(Cl)c(-c2c(Cl)ccc(Cl)c2Cl)cc1Cl [PCB 149] (APCI source condition: Dry, base ion: M+.)
GC retention time [1]: 19.8 min | collision cross section [2]: 158.29 Å²

Clc1cc(Cl)c(-c2cc(Cl)c(Cl)cc2Cl)cc1Cl [PCB 153] (APCI source condition: Dry, base ion: M+.)
GC retention time [1]: 20.3 min | collision cross section [2]: 161.05 Å²
